From US6168776A (priority 1997, dated 2001)
Entries after “also recorded” stand apart in the source; their conditions may differ.

Assays:
Aβ(10-43) [1] = biological target: T1, Aβ(10-43) (Homo sapiens, UniProt P05067); experiment: Inhibition of [14C] Chrysamine G binding to Aβ(10-43); details: for potency/affinity relative to reference compound / Ki relative to Chrysamine G / binding activity to Aβ: in words; for potency/affinity relative to reference compound: vs Chrysamine G or, for Chrysamine G, vs Congo red; for energy of binding: ΔG=-RT ln Keq, from KD (Chrysamine G) or Ki (aniline derivative)
T1 sequence (P05067 681-714): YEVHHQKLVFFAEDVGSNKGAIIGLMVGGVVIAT

[2] = Octanol/water partitioning; details: 1-octanol / phosphate buffered saline pH 7.4
Aβ [3] = details: cited from earlier work
[4] = in words; Tubis et al.; cited from earlier work
amylin = details: in words; cited from earlier work
[5] = guinea pigs; Tubis et al.; cited from earlier work
Aβ [6] = details: in words; cited from earlier work
PC-12 cells = experiment: Protection from Aβ(25-35)-induced toxicity in PC-12 cells (MTT reduction); details: for protective effects in cells incubated with 1 μM Aβ(25-35): Chrysamine G at 0.1 and 1 μM, FIG. 14; for protective effect against Aβ(25-35)-induced decrease in MTT reduction: in words, FIGS. 12 and 13
[7] = [14C] Chrysamine G binding to Down's syndrome brain homogenates; set-up: species or system human; details: two patients, FIG. 9C
From the text: FIGS. 9A, 9B and 9C. […] The data points represent the ratio of [^14 C] […] Horizontal bars represent the mean and error bars represent the standard error for control (circles), and AD brain (diamonds in 9A and 9B). […] Asterisks indicate significant differences compared to control (*p<0.05; **p<0.001). The diamonds in 9C represent a brain from a Down's syndrome patient not yet symptomatic with AD. The triangles in 9C represent a Down's syndrome patient who had developed AD as do the vast majority of Down's syndrome patients by their 40's.

[8] = Total [14C] Chrysamine G binding to AD brain homogenates; set-up: species or system human
[9] = Correlation of [14C]CG binding with neuritic plaque (NP) and neurofibrillary tangle (NFT) counts; set-up: species or system human
Description: FIG. 8B is a graph illustrating the correlation between the amount of [^14 C] […] The filled symbols and heavy lines indicate brains without amyloid angiopathy, the open symbols and dashed lines indicate brains with amyloid angiopathy. The y-axis represents total, absolute [^14 C] […] Approximately 75 μg protein and 150 nM [^14 C] Chrysamine G were used.

[10] = Scatchard analysis of [14C]CG binding to AD brain homogenates
[11] = Tissue levels after i.v. injection of [14C] Chrysamine G in mice (blood-brain barrier); assay type: in vivo, Swiss-Webster mice; details: 15 to 35 min after i.v. injection
[12] = Metabolism of [14C] Chrysamine G in mouse brain and liver
[13] = Total [14C] Chrysamine G binding to control brain homogenates; set-up: species or system human
Aβ(10-43) [14] = biological target: T1, Aβ(10-43); experiment: Scatchard analysis of [14C] Chrysamine G binding to synthetic Aβ(10-43); details: read-out: dissociation constant; approximately; whether by Scatchard analysis, kinetic methods, or inhibition of binding
[15] = Scatchard analysis of [14C]CG binding to control brain homogenates
[16] = Staining of transgenic mouse brain section; details: in words
From the text: FIG. 11. […] 26: 241-242 (1973). […] The photomicrograph was obtained using fluorescence microscopy.
(§1) The staining method was that of Stokes and Trickey, J. Clin. Pathol. 26: 241-242 (1973) with 1,4-bis(3-carboxy-4-hydroxyphenylethenyl)-benzene substituted for Congo red.

[17] = Staining of AD brain sections (fluorescence microscopy); set-up: species or system human; details: in words
Description: 26: 241-242 (1973) with 1 mM 1,4-bis(3-carboxy-4-hydroxyphenylethenyl)-benzene substituted for Congo red, but the procedure was otherwise identical. Stained slides were examined using fluorescence microscopy.
as §1

Compound: O=C(O)c1cc(N=Nc2ccc(-c3ccc(N=Nc4ccc(O)c(C(=O)O)c4)c(I)c3)cc2)ccc1O [3-ICG]
- potency/affinity relative to reference compound (Aβ(10-43) [1]): slightly more potent than Chrysamine G

Compound: Nc1c(/N=N/c2ccc(-c3ccc(/N=N/c4cc(S(=O)(=O)O)c5ccccc5c4N)cc3)cc2)cc(S(=O)(=O)O)c2ccccc12 [Congo red]
- octanol/water partition coefficient [2]: 0.665±0.037
- effect on Aβ-induced neurotoxicity and cell degeneration (Aβ [3]; in vitro, in words): inhibits fibrillar Aβ neurotoxicity; also recorded: inhibits Aβ-induced neurotoxicity and cell degeneration in vitro
- concentration for complete protection from Aβ-induced toxicity (Aβ [3]; literature): ≤ 20 µM
- concentration over which Aβ-induced toxicity is protected against (Aβ [3]; literature): over 2 μM
- crossing of the blood-brain barrier [4]: does not cross the blood-brain barrier well
- effect on amylin toxicity to pancreatic islet cells (amylin): inhibit pancreatic islet cell toxicity of diabetes-associated amylin; also recorded: protect pancreatic islet cells from the toxicity caused by amylin
- brain/kidney ratio [5]: approximately 0.07
- effect on aggregation of Aβ (Aβ [6]): does inhibit aggregation of Aβ

Compound: O=C(O)c1cc(N=Nc2ccc(-c3ccc(N=Nc4ccc(O)c(C(=O)O)c4)c(C(=O)O)c3)cc2C(=O)O)ccc1O [3,3'-(COOH)2 CG]
- loss of activity from Chrysamine G (fold) (Aβ(10-43) [1]; vs Chrysamine G): 7 fold

Compound: O=C(O)c1cc(N=Nc2ccc(-c3ccc(N=Nc4ccc(O)c(C(=O)O)c4)c(Br)c3)cc2Br)ccc1O [3,3'-Br2 CG]
- Ki relative to Chrysamine G (Aβ(10-43) [1]): about half that of Chrysamine G

Compound: O=C(O)c1ccccc1O [salicylic acid]
- binding activity to Aβ (Aβ(10-43) [1]): total lack of binding activity; also recorded: inactivity

Compound: O=C(O)c1cc(N=Nc2ccc(-c3ccc(N=Nc4ccc(O)c(C(=O)O)c4)c(Cl)c3)cc2Cl)ccc1O [3,3'-Cl2 CG]
- Ki relative to Chrysamine G (Aβ(10-43) [1]): about half that of Chrysamine G

Compound: Oc1ccc(N=Nc2ccc(-c3ccc(N=Nc4ccc(O)cc4)cc3)cc2)cc1 [phenol derivative]
- protective effects in cells incubated with 1 μM Aβ(25-35) (PC-12 cells): no protective effects, and perhaps enhanced the toxicity of Aβ
- protective effect against Aβ(25-35)-induced decrease in MTT reduction (PC-12 cells): does not prevent Aβ-induced cytotoxicity
- binding activity to Aβ (Aβ(10-43) [1]): completely destroyed binding affinity; also recorded: does not bind to synthetic Aβ

Compound: O=C(O)c1cc(N=Nc2ccc(-c3ccc(N=Nc4ccc(O)c(C(=O)O)c4)c(I)c3)cc2I)ccc1O [3,3'-I2 CG]
- Ki relative to Chrysamine G (Aβ(10-43) [1]): about half that of Chrysamine G

Compound: O=C(O)c1cc(N=Nc2ccc(-c3ccc(N=Nc4ccc(O)c(C(=O)O)c4)cc3S(=O)(=O)O)c(S(=O)(=O)O)c2)ccc1O [2,2'-(SO3)2 CG]
- binding activity to Aβ (Aβ(10-43) [1]): inactivity

Compound: O=C(O)c1cc(F)cc(N=Nc2ccc(-c3ccc(N=Nc4cc(F)cc(C(=O)O)c4O)cc3)cc2)c1O [(5-FSA)CG]
- potency/affinity relative to reference compound (Aβ(10-43) [1]): one-third as potent

Compound: O=C(O)c1c(O)ccc(N=Nc2ccc(-c3ccc(N=Nc4ccc(O)c(C(=O)O)c4O)cc3)cc2)c1O [(6-OHSA)CG]
- potency/affinity relative to reference compound (Aβ(10-43) [1]): highest affinity compound in this series

Compound: O=C(O)c1cc(N=Nc2ccccc2)ccc1O [aniline derivative]
- binding activity to Aβ (Aβ(10-43) [1]): decrease in affinity
- energy of binding (Aβ(10-43) [1]): 5.5 kcal/mol

Compound: O=C(O)c1cc(N=Nc2ccc(-c3ccc(N=Nc4ccc(O)c(C(=O)O)c4)cc3)cc2)ccc1O [Chrysamine G, 4,4'-bis(3-carboxy-4-hydroxyphenylazo)-biphenyl]
- binding in Down's syndrome brain vs control [7]: above the control range
- concentration range showing protective effects (PC-12 cells; Aβ(25-35)): 0.1 to 1.0 µM
- protective effects in cells incubated with 1 μM Aβ(25-35) (PC-12 cells): protective effects at 0.1 and 1 μM
- protective effect against Aβ(25-35)-induced decrease in MTT reduction (PC-12 cells): dose-dependent, protective effect; also recorded: protective effect which is dependent on both the concentration of Aβ(25-35) (FIG. 12) as well as the concentration of Chrysamine G; also recorded: prevents Aβ-induced cytotoxicity
- effect on MTT reduction in the absence of Aβ(25-35) (PC-12 cells; vs control, FIG. 13): no significant difference
- saturable (specific) binding, share of total binding ([8]; AD brain homogenates): 60-80%
- total binding ([8]; Cerebellum, AD (n = 11)): 73 ± 9 fmol/μg protein
- total binding ([8]; Frontal Pole, AD (n = 10), p < 0.006): 124 ± 16 fmol/μg protein
- total binding ([8]; Head of Caudate, AD (n = 7), p = 0.14): 123 ± 22 fmol/μg protein
- total binding ([8]; Inferior Parietal, AD (n = 11), p < 0.03): 137 ± 19 fmol/μg protein
- total binding ([8]; Occipital, AD (n = 11), p = 0.1): 95 ± 12 fmol/μg protein
- total binding ([8]; Superior Temporal, AD (n = 11), p < 0.02): 121 ± 14 fmol/μg protein
- total binding ([8]; Superior/Middle Frontal, AD (n = 11), p < 0.005): 130 ± 21 fmol/μg protein
- saturable and total binding vs control ([8]; in words): greater in AD brain than in control
- correlation of binding with NPs (r) ([9]; AD brains alone, p=0.007): 0.59
- correlation of binding with NFTs (r) ([9]; AD brains alone, p=0.026): 0.50
- correlation of binding with NP counts (r) ([9]; brains with cerebrovascular amyloid deposits, p=0.15): 0.49
- correlation of binding with NP counts (r) ([9]; brains without amyloid angiopathy, p=0.01): 0.79
- correlation of binding with NFTs (r) ([9]; controls included, p=0.001): 0.60
- correlation of binding with NPs (r) ([9]; controls included, p=0.001): 0.69
- Bmax (Table 1) ([10]; AD, n = 5): 0.784 ± .061 pmol/μg prot
- Bmax in AD brain higher than control ([10]; not significant (p=0.09)): 36%
- KD in AD brain lower than control ([10]; not significant (p=0.29)): 16%
- Bmax ([10]; typical AD brain sample, 48 NP/×200, FIG. 4B): 790 fmol/μg protein
- radioactivity in brain over time [11]: stayed nearly constant
- radioactivity that is unchanged Chrysamine G ([12]; 60 min, in words): essentially all
- remaining at 1 h ([12]; mouse, iv, 0.05 uCi/g): > 95%
- total binding ([13]; Cerebellum, Control (n = 8)): 75 ± 13 fmol/μg protein
- total binding ([13]; Frontal Pole, Control (n = 6)): 58 ± 8 fmol/μg protein
- total binding ([13]; Head of Caudate, Control (n = 4)): 73 ± 11 fmol/μg protein
- total binding ([13]; Inferior Parietal, Control (n = 8)): 76 ± 13 fmol/μg protein
- total binding ([13]; Occipital, Control (n = 8)): 64 ± 16 fmol/μg protein
- total binding ([13]; Superior Temporal, Control (n = 8)): 66 ± 17 fmol/μg protein
- total binding ([13]; Superior/Middle Frontal, Control (n = 8)): 54 ± 10 fmol/μg protein
- Kd (Aβ(10-43) [14]): 250 to 400 nM
- Bmax (Table 1) ([15]; Control, n = 6): 0.576 ± .092 pmol/μg prot
- Bmax ([15]; typical control brain sample, FIG. 4B): 614 fmol/μg protein
- energy of binding (Aβ(10-43) [1]): roughly 38 KJ/mole

Compound: O=C(O)c1cc(C=Cc2ccc(C=Cc3ccc(O)c(C(=O)O)c3)cc2)ccc1O [1,4-bis(3-carboxy-4-hydroxyphenylethenyl)-benzene]
- staining of plaque in transgenic mouse brain [16]: intensely stained plaque
- staining relative to Chrysamine G, Congo red, or Thioflavin S ([17]; human AD brain): much more intense than that observed with Chrysamine G, Congo red, or Thioflavin S
- staining of human AD brain [17]: Numerous amyloid plaques and neuropil threads can be readily identified as well as a neurofibrillary tangle; also recorded: Visible are a large number of neuritic plaques, a neurofibrillary tangle and frequent neuropil threads
